Measured values reported in patent publication US20250230161A1, “POLYCYCLIC CAP-DEPENDENT ENDONUCLEASE INHIBITORS FOR TREATING OR PREVENTING INFLUENZA” (Merck Sharp & Dohme LLC, priority 2021, published 2025).

tested on: FLU A (PR/8/34); experiment: Flu A Neuraminidase Antiviral Assay; assay type: cell-based; conditions: MDCK cells infected with FLU A (PR/8/34), 48 h incubation, NA activity by MUNANA fluorescence

Structure (SMILES)	EC50 [nM]
O=C1c2c(O)c(=O)ccn2N2CN1CCCCCC2c1ccccc1 (centres unmarked) [Compound 14]	927
O=C1c2c(O)c(=O)ccn2N2CN1C/C=C\CC2c1ccccc1 (centres unmarked) [Compound 17]	193
O=C1c2c(O)c(=O)ccn2N2CN1CCCCC2c1cccc(Cl)c1 (centres unmarked) [Compound 3]	133
CC1(c2ccccc2)CCCCN2CN1n1ccc(=O)c(O)c1C2=O (centres unmarked) [Compound 13]	310
CC1/C=C\CC(c2ccccc2)N2CN1C(=O)c1c(O)c(=O)ccn12 (centres unmarked) [Compound 19]	229
O=C1c2c(O)c(=O)ccn2N2CN1C/C=C\CC2c1cccc2ccc(F)cc12 (centres unmarked) [Compound 18]	1460
O=C1c2c(O)c(=O)ccn2N2CN1CCCCC2c1ccccc1Cl (centres unmarked) [Compound 2]	72
O=C1c2c(O)c(=O)ccn2N2CN1CCCCC2c1ccc(Cl)cc1 (centres unmarked) [Compound 4]	1690
O=C1c2c(O)c(=O)ccn2N2CN1CCCCC2c1ccccc1 (centres unmarked) [Compound 1]	143
CC1N2CCCCCC(c3ccccc3)N1n1ccc(=O)c(O)c1C2=O (centres unmarked) [Compound 22]	228
CC1CCN2CN(C(c3ccccc3)C1)n1ccc(=O)c(O)c1C2=O (centres unmarked) [Compound 23]	4410
O=C1c2c(O)c(=O)ccn2N2CN1CCCCC2c1cccc2ccccc12 (centres unmarked) [Compound 10]	577
O=C1c2c(O)c(=O)ccn2N2CN1CCCCC2c1ccccc1Br (centres unmarked) [Compound 5]	92
CC1N2CCCCC(c3ccccc3)N1n1ccc(=O)c(O)c1C2=O (centres unmarked) [Compound 21]	98
CC1CCCC(c2ccccc2)N2CN1C(=O)c1c(O)c(=O)ccn12 (centres unmarked) [Compound 15]	460
O=C1c2c(O)c(=O)ccn2N2CN1CC(F)CCC2c1ccccc1 (centres unmarked) [Compound 9]	578
O=C1c2c(O)c(=O)ccn2N2CN1CCCCC2c1ccc2ccccc2c1 (centres unmarked) [Compound 12]	6290
O=C1c2c(O)c(=O)ccn2N2CN1C(C1CC1)CCCC2c1ccccc1 (centres unmarked) [Compound 16]	164
O=C1c2c(O)c(=O)ccn2N2CN1CCCCC2c1cccc2ccc(F)cc12 (centres unmarked) [Compound 11]	966
O=C1c2c(O)c(=O)ccn2N2CN1C(C1CC1)/C=C\CC2c1ccccc1 (centres unmarked) [Compound 20]	171
